US6114517A, “Methods of modulating tumor necrosis factor α-induced expression of cell adhesion molecules” (Isis Pharmaceuticals Inc., priority 1998, dated 2000)

Tests used:
Assay type in all cases: cell-based, human
[1] = tested on: E-selectin; assay: TNF-α-induced E-selectin cell surface expression in HMVEC, flow cytometry; conditions: for time of maximal inhibition of E-selectin induction: following antisense treatment
Description: (§1) Human dermal microvascular cells (HMVEC-d; Clonetics, San Diego, Calif.) were cultivated in endothelial basal media (EBM, Clonetics) supplemented with 10% fetal bovine serum (HyClone, Logan, Utah). Cells were grown in 100 mm petri dishes until 70-80% confluent, then washed with PBS and OPTI-MEM (Life Technologies, Inc., Gaithersburg, Md.). The cells were then incubated in the presence of OPTI-MEM and […] LIPOFECTIN (a 1:1 (w/w) liposome formulation of the cationic lipid N-[1-(2,3-dioleyloxy)propyl]-n,n,n-trimethylammonium chloride (DOTMA), and dioleoyl phosphotidylethanolamine (DOPE) in membrane filtered water (Life Technologies, Gaithersburg, Md.), per 100 nM of oligonucleotide followed by addition of oligonucleotide at the appropriate concentrations.
(§2) The effect of c-raf and Ha-ras antisense oligonucleotide treatment on the induction of E-selectin by TNF-α was examined. HMVEC cells were treated with either the c-raf or Ha-ras antisense compound under dose-response conditions or over time at a single dose level followed by stimulation of E-selectin expression by TNF-α for 5 hours. The cell surface expression of E-selectin was determined by flow cytometry analysis. Following oligonucleotide treatment, cells were detached from the plates and analyzed for surface expression of cell adhesion molecules using a Becton Dickinson (San Jose, Calif.) FACScan. TNF-α and FITC conjugated antibody for E-selectin were obtained from R & D Systems (Minneapolis, Minn.). PE-conjugated antibody for ICAM-1 was obtained from Pharmingen (San Diego, Calif.). VCAM-1 antibody was obtained from Santa Cruz Biotechnology, Santa Cruz, Calif. Cell surface expression was calculated using the mean value of fluorescence intensity using 3,000-5,000 cells stained with the appropriate antibody for each sample and time point. Results are expressed as percentage of control (cell surface expression induced by TNF-α in cells that were not treated with oligonucleotides) based upon mean fluorescence intensity.
The effects of c-raf, Ha-ras, and a E-selectin antisense oligonucleotide on TNF-α-induced E-selectin cell surface expression under kinetic conditions were examined. […] To test this, cells were treated, separately, with antisense oligonucleotides to E-selectin, ICAM-1 and VCAM-1 and allowed to recover prior to TNF-α treatment. […] E-selectin cell surface expression was measured by flow cytometry analysis after 5 hours of TNF-A treatment.

[2] = tested on: ICAM-1; assay: TNF-α-induced ICAM-1 cell surface expression in HMVEC, flow cytometry; conditions: for maximal inhibition of induction of ICAM-1 by TNF-α: dose response
Description: as §1
as §2, with “intensity. Basal expression of E-selectin and VCAM-1 is undetectable in the absence of TNF-α whereas a low level of basal expression is detectable for ICAM-1.” for “intensity.”
(§3) TNF-α induction of ICAM-1 and VCAM-1 in cells treated with c-raf and Ha-ras antisense oligonucleotides was also examined to further define the roles of c-raf and Ha-ras in cytokine signaling. Oligonucleotides were tested, using flow cytometry analysis, as described in Example 4. Results are shown in Table 6 (ICAM-1) and Table 7 (VCAM-1).

[3] = tested on: VCAM-1; assay: TNF-α-induced VCAM-1 cell surface expression in HMVEC, flow cytometry; conditions: for Maximum inhibition of induction of VCAM-1 by TNF-α: dose response
Description: as §1
as §2, with “intensity. Basal expression of E-selectin and VCAM-1 is undetectable in the absence of TNF-α whereas a low level of basal expression is detectable for ICAM-1.” for “intensity.”
as §3

[4] = tested on: E-selectin mRNA; assay: TNF-α-induced E-selectin mRNA, Northern blot; conditions: 48 hrs recovery, TNF-α two to three hours before RNA analysis
Description: (§4) For determination of mRNA levels by Northern blot, total RNA was prepared from cells by the guanidinium isothiocyanate procedure or by the Qiagen RNAEASY method (Qiagen, Santa Clarita, Calif.) at the indicated times after initiation of oligonucleotide treatment. Northern blot analysis was performed as described in Current Protocols in Molecular Biology (Ausubel, F. M., et al., (eds), 1987, Greene Publishing Assoc. and Wiley Interscience, New York). A glyceraldehyde 3-phosphate dehydrogenase (G3PDH) probe was purchased from Clontech (Palo Alto, Calif., Catalog Number 9805-1). RNA was quantified and normalized to G3PDH mRNA levels using a Molecular Dynamic PHOSPHORIMAGER (Sunnyvale, Calif.).
(§5) Northern blot analysis was carried out to examine whether c-raf and Ha-ras antisense oligonucleotides inhibit the induction of cell adhesion molecules at the transcriptional level. Cells were treated with c-raf (ISIS 12854, SEQ ID NO. 2) or Ha-ras (ISIS 15168, SEQ ID NO. 4) antisense oligonucleotides and allowed to recover for 48 hrs. TNF-α was added two to three hours prior to RNA analysis and Northern blotting was performed with probes specific for E-selectin, ICAM-1, and VCAM-1. The probe for E-selectin was obtained by PCR amplification using primers directed to HUMELAM1A (Genbank Accession No. M24736; SEQ ID NO. 18).

[5] = tested on: ICAM-1 mRNA; assay: TNF-α-induced ICAM-1 mRNA, Northern blot; conditions: 48 hrs recovery, TNF-α two to three hours before RNA analysis
Description: as §4, §5

[6] = tested on: VCAM-1 mRNA; assay: TNF-α-induced VCAM-1 mRNA, Northern blot; conditions: 48 hrs recovery, TNF-α two to three hours before RNA analysis
Description: as §4, §5

[7] = 25 nM, TNF-α for 5 hours, % of control
[8] = 75 nM, TNF-α for 5 hours, % of control
[9] = 150 nM, TNF-α for 5 hours, % of control
[10] = time course, 12 h/20 h after oligonucleotide treatment, TNF-α 5 hours
[11] = time course, 48 h after oligonucleotide treatment, TNF-α 5 hours
[12] = time course, 72 h after oligonucleotide treatment, TNF-α 5 hours

Row | Substance | % Cell Surface Expression (E-selectin) [1, 7] | % Cell Surface Expression (E-selectin) [1, 8] | % Cell Surface Expression (E-selectin) [1, 9] | % Cell Surface Expression (E-selectin) [1, 10] | % Cell Surface Expression (E-selectin) [1, 11] | % Cell Surface Expression (E-selectin) [1, 12] | % Cell Surface Expression (ICAM-1) ([2]; 20 nM) | % Cell Surface Expression (ICAM-1) ([2]; 50 nM) | % Cell Surface Expression (ICAM-1) ([2]; 100 nM) | % Cell Surface Inhibition (ICAM-1) ([2]; 100 nM) | % Cell Surface Expression (VCAM-1) ([3]; 20 nM) | % Cell Surface Expression (VCAM-1) ([3]; 50 nM) | % Cell Surface Inhibition (VCAM-1) ([3]; 50 nM) | % Cell Surface Expression (VCAM-1) ([3]; 100 nM) | % Cell Surface Inhibition (VCAM-1) ([3]; 100 nM) | % mRNA Expression (E-selectin) [4] | % mRNA Inhibition (E-selectin) [4] | % mRNA Expression (ICAM-1) [5] | % mRNA Expression (VCAM-1) [6] | % Cell Surface Inhibition (E-selectin) ([1]; 25 nM, TNF-α for 5 hours) | other results
1 | ToCoAsGsTsAsAsTsAsGsCsCsCoCoAoCoAoToGoG [ISIS 17552, reference compound] | 134% | 116% | 116% | 113% | 116% | 111% | 102% | 100% | 98% | 2% | 111% | 97% | 3% | 85% | 15% | 92% | 8% | 101% | 111% |  | effect on E-selectin induction ([1]; dose response, HMVEC): little to no effect
2 | ToCoCsGsTsCsAsTsCsGsCsTsCoCoToCoAoGoGoG [ISIS 15168] | 72% | 47% | 41% | 87% | 42% | 42% | 81% | 62% | 54% | 46% | 70% | 51% | 49% | 44% | 56% | 13% | 87% | 73% | 29% | 28% | % Cell Surface Inhibition (E-selectin) ([1]; 75 nM, TNF-α for 5 hours): 53%; % Cell Surface Inhibition (E-selectin) ([1]; 150 nM, TNF-α for 5 hours): 59%; Maximal inhibition of E-selectin induction ([1]; dose response, HMVEC): ~60%; time of maximal inhibition of E-selectin induction [1]: 48 h; % Cell Surface Inhibition (E-selectin) [1, 10]: 13%; % Cell Surface Inhibition (E-selectin) [1, 11]: 58%; % Cell Surface Inhibition (E-selectin) [1, 12]: 58%; % Cell Surface Inhibition (ICAM-1) ([2]; 20 nM): 19%; % Cell Surface Inhibition (ICAM-1) ([2]; 50 nM): 38%; maximal inhibition of induction of ICAM-1 by TNF-α [2]: greater than 40%; % Cell Surface Inhibition (VCAM-1) ([3]; 20 nM): 30%; Maximum inhibition of induction of VCAM-1 by TNF-α [3]: greater than 50%; % mRNA Inhibition (ICAM-1) [5]: 27%; % mRNA Inhibition (VCAM-1) [6]: 71%
3 | ToCoCoCoGoCsCsTsGsTsGsAsCsAsToGoCoAoToT [ISIS 12854] | 37% | 26% | 23% | 58% | 23% | 24% | 80% | 62% | 57% | 43% | 46% | 37% | 63% | 28% | 72% | 22% | 78% | 78% | 35% | 63% | % Cell Surface Inhibition (E-selectin) ([1]; 75 nM, TNF-α for 5 hours): 74%; % Cell Surface Inhibition (E-selectin) ([1]; 150 nM, TNF-α for 5 hours): 77%; Maximal inhibition of E-selectin induction ([1]; dose response, HMVEC): approximately 80%; time of maximal inhibition of E-selectin induction [1]: 48 h; % Cell Surface Inhibition (E-selectin) [1, 10]: 42%; % Cell Surface Inhibition (E-selectin) [1, 11]: 77%; % Cell Surface Inhibition (E-selectin) [1, 12]: 76%; % Cell Surface Inhibition (ICAM-1) ([2]; 20 nM): 20%; % Cell Surface Inhibition (ICAM-1) ([2]; 50 nM): 38%; maximal inhibition of induction of ICAM-1 by TNF-α [2]: greater than 40%; % Cell Surface Inhibition (VCAM-1) ([3]; 20 nM): 54%; Maximum inhibition of induction of VCAM-1 by TNF-α [3]: greater than 70%; % mRNA Inhibition (ICAM-1) [5]: 22%; % mRNA Inhibition (VCAM-1) [6]: 65%
